Experimental data: the OligoGym collection
“And” between values parts separate entries of the source, which are not always exact repeats. Equal values may be shown once. After the bases stand the sugars from the 5' end (letter, count) and the backbone: PS all phosphorothioate, else s phosphorothioate and o phosphodiester by linkage. Methylation of C is not given here. e = 2'-O-(2-methoxyethyl) (MOE); k = constrained ethyl (cEt); d = 2'-deoxy (DNA)

Molecular target: IRF4
Conditions: ASO

ACAAAAGGTTCCCGCG (sugars k3 d10 k3, PS) was tested, and the target mRNA inhibition (SK-MEL-28, 4 µM) was 3%.

With ATACATCACTGCAGTT (sugars k3 d10 k3, PS) the target mRNA inhibition (SK-MEL-28, 4 µM) was 36%.

Sequence GGCCTTGCCAGTGGTG (sugars k3 d10 k3, PS) has a target mRNA inhibition (SK-MEL-28, 4 µM) of -12%.

With “GACACTTTTAGAGAGG (sugars k3 d9 k3 e1, PS)” the target mRNA inhibition (MM.1R, 1 µM) was 24%.

AGCCAAGAGGTGCGAG (sugars k3 d10 k3, PS) was tested, and the target mRNA inhibition (SK-MEL-28, 4 µM) was 38%.

“GAAGTTTACACTGGAT (sugars k3 d9 k3 e1, PS)” gave a target mRNA inhibition (MM.1R, 1 µM) of 45%.

Work on TTTATAGTAGGTAAGA (sugars k3 d10 k3, PS) yielded a target mRNA inhibition (SK-MEL-28, 4 µM) of 6%.

TCAATGATGGCAGTCT (sugars k3 d10 k3, PS) was tested, and the target mRNA inhibition (SK-MEL-28, 4 µM) was 54%.

Work on CCATAGAGCCAGAGCA (sugars k3 d10 k3, PS) yielded a target mRNA inhibition (SK-MEL-28, 4 µM) of 64%.

In the case of ATCAGATACACACCCT (sugars k3 d10 k3, PS), the target mRNA inhibition (SK-MEL-28, 4 µM) is reported as -8%.

In the case of ACGCACCCGCAGCCCA (sugars k3 d10 k3, PS), the target mRNA inhibition (MM.1R, 1 µM) is reported as -10%.

Sequence CTGGAGGTCGAACCTC (sugars k3 d10 k3, PS) has a target mRNA inhibition (SK-MEL-28, 4 µM) of 2%.

For TTCCATAGAGCCAGAG (sugars k3 d10 k3, PS), the target mRNA inhibition (SK-MEL-28, 4 µM) was 37%.

Work on AGCTGAATGCTCTCCA (sugars k3 d10 k3, PS) yielded a target mRNA inhibition (SK-MEL-28, 4 µM) of 78%.

Sequence AGCTCAATAATCTCCC (sugars k3 d10 k3, PS) has a target mRNA inhibition (MM.1R, 1 µM) of 6%.

CTAAAGTCCCATCGAA (sugars k3 d10 k3, PS) was tested, and the target mRNA inhibition (MM.1R, 1 µM) was -2%.

Sequence CTTTTTTGGCTCCCTC (sugars k4 d8 k4, PS) has a target mRNA inhibition (MM.1R, 0.074 µM) of -3%, a target mRNA inhibition (MM.1R, 0.222 µM) of -3% and a target mRNA inhibition (MM.1R, 0.666 µM) of 9%. The target mRNA inhibition (MM.1R, 2 µM) was 25%, the target mRNA inhibition (SK-MEL-28, 0.185 µM) was 4% and 9% and 8% and the target mRNA inhibition (SK-MEL-28, 4 µM) was 46%. For the same sequence, the target mRNA inhibition (SK-MEL-28, 5 µM) was 45% and 42% and 62% and the target mRNA inhibition (SK-MEL-28, 15 µM) was 63% and 68% and 81%.

Work on “GTGATAGCTGAGCTGA (sugars kdddddddddkekeke, PS)” yielded a target mRNA inhibition (MM.1R, 1 µM) of 16%.

With AGCTAGTTCATTCCCT (sugars k3 d10 k3, PS) the target mRNA inhibition (SK-MEL-28, 4 µM) was 48%.

CCCTTATTAGACTGAC (sugars k3 d10 k3, PS) gave a target mRNA inhibition (SK-MEL-28, 4 µM) of 67%.

“CTTGATAAAGGCTGAA (sugars kkdddddddddkdkdk, PS)” showed a target mRNA inhibition (MM.1R, 1 µM) of 1%.

CGGTTAGCTCATCCCG (sugars k3 d10 k3, PS) gave a target mRNA inhibition (MM.1R, 1 µM) of 5%.

With GAAGAATAAACACCCC (sugars k3 d10 k3, PS) the target mRNA inhibition (SK-MEL-28, 4 µM) was 52%.

For CTTAAGCTAAACTCCT (sugars k3 d10 k3, PS), the target mRNA inhibition (SK-MEL-28, 4 µM) was 27%.

Work on CTGTAAGGGCTGCTCA (sugars k3 d10 k3, PS) yielded a target mRNA inhibition (SK-MEL-28, 4 µM) of 56%.

CTTGGTCAATTTTCAC (sugars k3 d10 k3, PS) showed a target mRNA inhibition (SK-MEL-28, 4 µM) of 53%.

“TGCTTGAGGTTTTCCT (sugars kkdddddddddkekek, PS)” was tested, and the target mRNA inhibition (MM.1R, 1 µM) was 36%.

CAATTAGCTCTTCTAT (sugars k3 d10 k3, PS) gave a target mRNA inhibition (SK-MEL-28, 4 µM) of 14%.

Work on TGTAAGGGCTGCTCAT (sugars k3 d10 k3, PS) yielded a target mRNA inhibition (SK-MEL-28, 4 µM) of 49%.

Work on TTCCACACTGGATATG (sugars k3 d10 k3, PS) yielded a target mRNA inhibition (SK-MEL-28, 4 µM) of 41%.

Sequence GCATTTGGAAAAAGCC (sugars k3 d10 k3, PS) has a target mRNA inhibition (SK-MEL-28, 4 µM) of 71%.

CTAAGGAGACAGTAAC (sugars k3 d10 k3, PS) showed a target mRNA inhibition (SK-MEL-28, 4 µM) of 29%.

CAGAGACGCGGTGAGA (sugars k3 d10 k3, PS) was tested, and the target mRNA inhibition (SK-MEL-28, 4 µM) was -61%.

AAGGAGTGCAGGAGAG (sugars k3 d10 k3, PS) was tested, and the target mRNA inhibition (SK-MEL-28, 4 µM) was 13%.

In the case of “ACGTGTGCTTGCCAAG (sugars kkddddddddddkeke, PS)”, the target mRNA inhibition (MM.1R, 1 µM) is reported as 6% and 26%.

In the case of GGAGAGCGGAGGCGGG (sugars k3 d10 k3, PS), the target mRNA inhibition (SK-MEL-28, 4 µM) is reported as 21%.

CGGACGCACGGAGAGG (sugars k3 d10 k3, PS) showed a target mRNA inhibition (SK-MEL-28, 4 µM) of 28%.

Work on TGACATCATTTAGGTA (sugars k3 d10 k3, PS) yielded a target mRNA inhibition (SK-MEL-28, 4 µM) of 54%.

Sequence TTCAGCAGAAAGTGGG (sugars k3 d10 k3, PS) has a target mRNA inhibition (SK-MEL-28, 4 µM) of 48%.

CATTACTAGATTGTAG (sugars k3 d10 k3, PS) was tested, and the target mRNA inhibition (SK-MEL-28, 4 µM) was 9%.

GACTATTAGATAAGTA (sugars k3 d10 k3, PS) was tested, and the target mRNA inhibition (SK-MEL-28, 4 µM) was 29%.

Sequence GTCCACATACCTGAAA (sugars k3 d10 k3, PS) has a target mRNA inhibition (MM.1R, 1 µM) of 8%.
